Measurements reported in ChEMBL document CHEMBL4425186, “Discovery and SAR of pyrrolo[2,1-f][1,2,4]triazin-4-amines as potent and selective PI3Kδ inhibitors” (Bioorg Med Chem Lett, 2016).

Key:
[1] = Stability in mouse liver microsomes assessed as parent compound remaining at 0.5 uM after 10 mins by high throughput assay; format: ADME, Microsome; conditions: read-out: Stability
[2] = molecular target: T1, Phosphatidylinositol 4,5-bisphosphate 3-kinase catalytic subunit delta isoform (Homo sapiens, UniProt O00329); assay: Inhibition of PI3Kdelta in BCR-stimulated human B cells assessed as suppression of CD86 expression after 18 hrs by FACS analysis
T1 sequence (O00329 whole entry): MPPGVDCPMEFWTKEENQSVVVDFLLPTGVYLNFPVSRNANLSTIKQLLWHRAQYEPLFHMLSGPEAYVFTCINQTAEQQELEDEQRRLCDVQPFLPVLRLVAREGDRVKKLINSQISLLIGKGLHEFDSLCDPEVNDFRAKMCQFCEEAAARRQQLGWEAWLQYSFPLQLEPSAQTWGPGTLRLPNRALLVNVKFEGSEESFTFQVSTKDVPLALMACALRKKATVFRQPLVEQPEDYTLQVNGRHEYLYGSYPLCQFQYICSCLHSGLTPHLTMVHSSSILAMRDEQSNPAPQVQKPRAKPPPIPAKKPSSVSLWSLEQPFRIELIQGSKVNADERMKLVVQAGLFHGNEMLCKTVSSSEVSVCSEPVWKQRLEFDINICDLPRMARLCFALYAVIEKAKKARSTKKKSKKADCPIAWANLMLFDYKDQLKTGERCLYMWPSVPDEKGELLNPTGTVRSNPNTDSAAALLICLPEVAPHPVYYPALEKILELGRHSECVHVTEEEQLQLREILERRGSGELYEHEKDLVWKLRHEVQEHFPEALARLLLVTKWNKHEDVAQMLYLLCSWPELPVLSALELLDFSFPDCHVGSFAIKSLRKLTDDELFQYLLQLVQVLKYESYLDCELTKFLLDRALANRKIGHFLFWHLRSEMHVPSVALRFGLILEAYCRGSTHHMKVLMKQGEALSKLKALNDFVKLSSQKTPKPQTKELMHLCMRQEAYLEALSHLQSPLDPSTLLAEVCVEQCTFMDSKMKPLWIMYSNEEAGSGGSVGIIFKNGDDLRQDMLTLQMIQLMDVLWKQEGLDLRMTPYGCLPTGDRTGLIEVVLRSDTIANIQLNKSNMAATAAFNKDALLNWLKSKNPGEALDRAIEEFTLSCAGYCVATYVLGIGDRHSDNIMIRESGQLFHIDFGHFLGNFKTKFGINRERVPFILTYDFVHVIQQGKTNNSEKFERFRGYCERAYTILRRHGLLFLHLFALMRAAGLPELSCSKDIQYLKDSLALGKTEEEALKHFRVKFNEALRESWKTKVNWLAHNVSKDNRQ

B cell = assay: Antiproliferative activity against human B cells by thymidine incorporation assay; format: functional, cell-based
[3] = molecular target: T1, Phosphatidylinositol 4,5-bisphosphate 3-kinase catalytic subunit delta isoform
Mus musculus [4] = assay: Antiarthritic activity in DBA/1 mouse model of collagen-induced arthritis assessed as reduction in anti-collagen IgG titres at 1 mg/kg/day, po pretreated for 2 hrs followed by first collagen injection measured after second collagen injection on day 21 by ELISA relative to control; format: functional; parameters: scale not given: the % may be the effect or the level left
Mus musculus [5] = assay: Antiarthritic activity in DBA/1 mouse model of collagen-induced arthritis assessed as reduction in clinical arthritic scores at 1 mg/kg/day, po pretreated for 2 hrs followed by first collagen injection measured after second collagen injection on day 21 relative to control; format: functional; parameters: scale not given: the % may be the effect or the level left
[6] = Stability in rat liver microsomes assessed as parent compound remaining at 0.5 uM after 10 mins by high throughput assay; format: ADME, Microsome; conditions: read-out: Stability
Cytochrome P450 = assay: Inhibition of Cytochrome P450 (unknown origin); format: ADME, protein assay; conditions: human
Mus musculus [7] = assay: Antiarthritic activity in DBA/1 mouse model of collagen-induced arthritis assessed as reduction in clinical arthritic scores at 100 mg/kg, po pretreated for 2 hrs followed by first collagen injection measured after second collagen injection on day 21 relative to control; format: functional; parameters: scale not given: the % may be the effect or the level left
[8] = AUC in mouse at 30 mg/kg, po; format: ADME, organism-based; conditions: in vivo
[9] = Half life in mouse; format: ADME, organism-based; conditions: in vivo
[10] = Clearance in mouse; format: ADME, organism-based; conditions: in vivo
Mus musculus [11] = assay: Antiarthritic activity in DBA/1 mouse model of collagen-induced arthritis assessed as reduction in anti-collagen IgG titres at 100 mg/kg, po pretreated for 2 hrs followed by first collagen injection measured after second collagen injection on day 21 by ELISA relative to control; format: functional; parameters: scale not given: the % may be the effect or the level left
[12] = Cmax in mouse at 30 mg/kg, po; format: ADME, organism-based; parameters: dose 30 mg/kg, route oral; conditions: in vivo
[13] = Oral bioavailability in mouse; format: ADME, organism-based; conditions: in vivo
[14] = Volume of distribution in mouse; format: ADME, organism-based; conditions: in vivo

remaining at 10 min, 0.5 µM [1]	IC50 [3]	Compound	IC50 (B cell)	also measured
100%	4 nM	CN1CCN(Cc2cccc(-c3cc(-c4ccnn4C4CCOCC4)c4c(N)ncnn34)c2)CC1	28 nM	IC50 [2]: 721 nM
	231 nM	Nc1ncnn2c(-c3cccnc3)cc(-c3ccnn3C3CCCCCC3)c12		
	3 nM	CN(C)c1cccc(-c2cc(-c3ccnn3C3CCCCC3)c3c(N)ncnn23)c1		IC50 [2]: 16 nM
		CN(Cc1cnc2nc(N)nc(N)c2n1)c1ccc(C(=O)N[C@@H](CCC(=O)O)C(=O)O)cc1 [METHOTREXATE]		Activity (Mus musculus [4]): 63%; Activity (Mus musculus [5]): 83%
	27 nM	Nc1ncnn2c(-c3cccc(CO)c3)cc(-c3ccnn3C3CCCCC3)c12		
	150 nM	CN1CCC(n2nccc2-c2cc(-c3cccnc3)n3ncnc(N)c23)CC1		
6%		Nc1ncnn2c(-c3cccc(C4(N5CCOCC5)COC4)c3)cc(-c3ccnn3C3CCOCC3)c12	1 nM	
45%		CC1(C)OC(=O)NC1c1cccc(-c2cc(-c3ccnn3C3CCOCC3)c3c(N)ncnn23)c1 (centres undefined)	31 nM	
	31 nM	Nc1ncnn2c(-c3ccc(CO)cc3)cc(-c3ccnn3C3CCCCC3)c12		
	42 nM	Nc1ncnn2c(-c3cccnc3)cc(-c3ccnn3C3CCOCC3)c12		
	576 nM	Nc1ncnn2c(-c3ccccc3)cc(-c3ccnn3C3CCCCC3)c12		
	11 nM	Cn1cc(-c2cc(-c3ccnn3C3CCCCC3)c3c(N)ncnn23)cn1		
		CS(=O)(=O)NCc1cccc(-c2cc(-c3ccnn3C3CCOCC3)c3c(N)ncnn23)c1	99 nM	
0.09%		CC(C)[C@H]1COC(=O)N1Cc1cccc(-c2cc(-c3ccnn3C3CCOCC3)c3c(N)ncnn23)c1		
	29 nM	Nc1ncnn2c(-c3cccnc3)cc(-c3ccnn3C3CCCC3)c12		
	26 nM	NCc1ccc(-c2cc(-c3ccnn3C3CCCCC3)c3c(N)ncnn23)cc1		
65%		CN1C[C@H](O)C[C@@H]1c1cccc(-c2cc(-c3ccnn3C3CCOCC3)c3c(N)ncnn23)c1	87 nM	
16%	22 nM	Nc1ncnn2c(-c3ccncc3)cc(-c3ccnn3C3CCCCC3)c12		remaining at 10 min, 0.5 µM [6]: 46%
	14 nM	Nc1ncnn2c(-c3cccc(S(N)(=O)=O)c3)cc(-c3ccnn3C3CCCCC3)c12		
70%		CN(C)C1(c2cccc(-c3cc(-c4ccnn4C4CCOCC4)c4c(N)ncnn34)c2)COC1	9 nM	
	2 nM	Nc1ncnn2c(-c3cccc(C(=O)N4CCCC4)c3)cc(-c3ccnn3C3CCCCC3)c12		IC50 [2]: 36 nM
4%	1 nM	CC(C)C(=O)N1C[C@H](O)C[C@H]1c1cccc(-c2cc(-c3ccnn3C3CCOCC3)c3c(N)ncnn23)c1	8 nM	IC50 [2]: 110 nM
19%		Nc1ncnn2c(-c3cccc(CN4CCCC4=O)c3)cc(-c3ccnn3C3CCOCC3)c12	35 nM	
	22 nM	Nc1ncnn2c(-c3cccnc3)cc(-c3ccnn3C3CCCCC3)c12		inhibition (INH) (Cytochrome P450): Not Active
	252 nM	CC(C)Cn1nccc1-c1cc(-c2cccnc2)n2ncnc(N)c12		
	405 nM	Nc1ncnn2ccc(-c3ccnn3C3CCCCC3)c12		
	163 nM	Nc1ncnn2c(-c3cccnc3)cc(-c3ccnn3C3CCS(=O)(=O)CC3)c12		
58%		CN(C)C(C)(C)c1cccc(-c2cc(-c3ccnn3C3CCOCC3)c3c(N)ncnn23)c1	6 nM	Activity (Mus musculus [7]): 100%; AUC [8]: 6.23 µM·h; half-life [9]: 60 min; clearance [10]: 82.1 mL/min/kg; Activity (Mus musculus [11]): 80%; Cmax [12]: 2890 nM; bioavailability [13]: 46%; Vd [14]: 6.2 L/kg
